Laboratory results as given in patent publication EP0354453A2, “Antimicrobial agent for animals” (priority 1988, dated 1990).
Converted amounts (≈) assume the structure as drawn. Where a name gives a salt, the structure may show the parent alone. Read-outs that look alike come from different tables or passages of the source.

What was measured:
[1] = system: Mycoplasma gallisepticum Strain DP-1047; experiment: in vitro antimicrobial activity (MIC) in Frey liquid medium; type: cell-based; conditions: Mycoplasmoides gallisepticum
Experimental: (§1) Various test strains of Mycoplasma gallisepticum derived from chicken were cultured in a Frey liquid medium for Mycoplasma for 3 days. The culture broth containing about 10⁸/ml cells was diluted to a volume of 100 times. The diluted broth was inoculated into Frey liquid media for Mycoplasma to which the compounds of this invention were added at prescribed concentrations. The cells were incubated at 37°C for 3-5 days while daily observing the color of the media. Among the culture broths maintaining yellow color at the time when the control to which no test compound was added turned red, the concentration of the broth having the minimum concentration was taken as the MIC of the compound.

[2] = system: Mycoplasma gallisepticum Strain 2004; experiment: as above; type: cell-based; conditions: Mycoplasmoides gallisepticum, STRAIN2004
Experimental: as §1

[3] = system: Mycoplasma gallisepticum Strain T-7; experiment: as above; type: cell-based; conditions: Mycoplasmoides gallisepticum, Mycoplasma gallisepticum Strain T-7, from chicken, 37°C, 3-5 days
Experimental: as §1

[4] = system: Mycoplasma gallisepticum Strain T-2; experiment: as above; type: cell-based; conditions: Mycoplasmoides gallisepticum
Experimental: as §1

[5] = system: Mycoplasma gallisepticum Strain 2012; experiment: as above; type: cell-based; conditions: Mycoplasmoides gallisepticum, STRAIN2012
Experimental: as §1

[6] = system: Mycoplasma gallisepticum; experiment: Effect of oral administration on chicken inoculated with Mycoplasma gallisepticum; type: in vivo; conditions: for Chickens developing disease in air sac (naked eye observation) / No. of dead chickens: 5 tested chickens
Experimental: Mycoplasma gallisepticum cells collected from chickens having respiratory Mycoplasma infection were cultured for 3 days in a Frey liquid media for Mycoplasma. 0.2 ml of this culture broth was injected into the trachea of chickens of an average body weight of 80 g using a 1 ml disposable injection needle. Beginning from the next day following the inoculation, feeds to which Compound (1) had been added in the amount of 100 ppm, 75 ppm, or 50 ppm were freely given to the chickens for 5 days. Following the administration of Compound (1) the chickens were given feed containing no drug for a further 5 days. The surviving chickens were sacrificed and dissected. After examination of the degree of disease in the air sac, Mycoplasma gallisepticum in the infraorbital sinus, trachea, lung, and air sac were determined. […] TABLE 6 […]

[7] = Acute toxicity test, intravenous injection; type: in vivo
Experimental: Representative test compounds, Compounds (2) and (3), were intravenously injected to mice. No fatality occurred at a dose of 200 mg/kg (10 mice/group), for Compound (2), and a dose of 200 mg/kg (6 mice/group), for Compound (3). From the results, the LD₅₀ values of the compounds are considered to be greater than 200 mg/kg.

[8] = system: Escherichia coli S6W; experiment: in vitro antimicrobial activity (MIC), agar dilution, Part 2; type: cell-based
Experimental: (§2) Test microorganisms listed in Table 2 were cultured overnight in heart infusion nutrient broth (produced by Eiken Chemical Co., Ltd.). Culture broth containing about 10⁸/ml cells was diluted to a volume of 100 times. An aliquot (about 0.05 ml) of the diluted broth was inoculated onto a Mueller Hinton agar plate (produced by Eiken Chemical Co., Ltd.) to which Compound No. 1 was added in a prescribed concentration. […]
(§3) MIC of Compounds (1)-(8) against various pathogenic bacteria derived from animals was determined in the same manner as in Example 1.

[9] = system: Salmonella typhimurium 103; experiment: as above; type: cell-based; conditions: Salmonella enterica
Experimental: as §2, §3

[10] = system: Bordetella bronchiaseptica OKM-1; experiment: as above; type: cell-based
Experimental: as §2, §3

[11] = system: Staphylococcus aureus Yamaguchi 6; experiment: as above; type: cell-based
Experimental: as §2, §3

[12] = system: Pasteurella multocida DB-12-1; experiment: as above; type: cell-based; conditions: DB121
Experimental: as §2, §3

[13] = system: Salmonella typhimurium 569; experiment: as above; type: cell-based
Experimental: as §2, §3

[14] = system: Escherichia coli 139; experiment: as above; type: cell-based
Experimental: as §2, §3

[15] = system: Escherichia coli 881; experiment: as above; type: cell-based
Experimental: as §2, §3

[16] = Mycoplasma gallisepticum Strain DP-1047, from chicken, Frey liquid medium, 37°C, 3-5 days, read-out: MIC
[17] = Mycoplasma gallisepticum Strain 2004, from chicken, Frey liquid medium, 37°C, 3-5 days, read-out: MIC
[18] = Mycoplasma gallisepticum Strain T-2, from chicken, Frey liquid medium, 37°C, 3-5 days, read-out: MIC
[19] = Mycoplasma gallisepticum Strain 2012, from chicken, Frey liquid medium, 37°C, 3-5 days, read-out: MIC
[20] = Escherichia coli, S6W, Escherichia coli S6W, Chicken, read-out: MIC
[21] = Salmonella typhimurium 103, Chicken, read-out: MIC
[22] = Bordetella, OKM1, Bordetella bronchiaseptica OKM-1, Pig, read-out: MIC
[23] = Staphylococcus aureus Yamaguchi 6, Chicken, read-out: MIC
[24] = Pasteurella multocida DB-12-1, Pig, read-out: MIC
[25] = Salmonella enterica, TYPHIMURIUM, Salmonella typhimurium 569, Pig, read-out: MIC
[26] = Escherichia coli 139, Cow, read-out: MIC
[27] = Escherichia coli, 881, Escherichia coli 881, Pig, read-out: MIC

MIC [1, 16] [µg/mL]	MIC [2, 17] [µg/mL]	MIC [3] [µg/mL]	MIC [4, 18] [µg/mL]	MIC [5, 19] [µg/mL]	MIC [8, 20] [µg/mL]	MIC [9, 21] [µg/mL]	MIC [10, 22] [µg/mL]	MIC [11, 23] [µg/mL]	MIC [12, 24] [µg/mL]	MIC [13, 25] [µg/mL]	MIC [14, 26] [µg/mL]	MIC [15, 27] [µg/mL]	SMILES	other results
–	–	–	–	–	0.2 (≈ 0.514 µM)	0.2 (≈ 0.514 µM)	0.39 (≈ 1 µM)	0.2 (≈ 0.514 µM)	–	0.2 (≈ 0.514 µM)	0.2 (≈ 0.514 µM)	0.2 (≈ 0.514 µM)	CCCN1CCN(c2c(F)cc3c(=O)c(C(=O)O)cn4c3c2OC[C@@H]4C)CC1 [Compound (7), 3S-9-fluoro-2,3-dihydro-3-methyl-10-(4-n-propyl-1-piperazinyl)-7-oxo-7H-pyrido[1,2,3-de] [1,4]benzoxazine-6-carboxylic acid]	–
0.1 (≈ 0.248 µM)	0.025 (≈ 0.062 µM)	0.1 (≈ 0.248 µM)	0.1 (≈ 0.248 µM)	0.025 (≈ 0.062 µM)	0.78 (≈ 1.93 µM)	1.56 (≈ 3.87 µM)	0.78 (≈ 1.93 µM)	0.78 (≈ 1.93 µM)	0.1 (≈ 0.248 µM)	0.78 (≈ 1.93 µM)	0.78 (≈ 1.93 µM)	0.78 (≈ 1.93 µM)	CCCCN1CCN(c2c(F)cc3c(=O)c(C(=O)O)cn4c3c2OCC4C)CC1 (racemic) [Compound (5), 3(RS)-9-fluoro-2,3-dihydro-3-methyl-10-(4-n-butyl-1-piperazinyl)-7-oxo-7H-pyrido[1,2,3-de] [1,4]benzoxazine-6-carboxylic acid]	–
–	–	–	–	–	0.1 (≈ 0.266 µM)	0.1 (≈ 0.266 µM)	0.2 (≈ 0.533 µM)	0.2 (≈ 0.533 µM)	–	0.1 (≈ 0.266 µM)	0.1 (≈ 0.266 µM)	0.1 (≈ 0.266 µM)	CCN1CCN(c2c(F)cc3c(=O)c(C(=O)O)cn4c3c2OC[C@@H]4C)CC1 [(6), 3S-9-fluoro-2,3-dihydro-3-methyl-10-(4-ethyl-1-piperazinyl)-7-oxo-7H-pyrido[1,2,3-de] [1,4]benzoxazine-6-carboxylic acid]	–
0.2 (≈ 0.514 µM)	0.05 (≈ 0.128 µM)	0.39 (≈ 1 µM)	0.39 (≈ 1 µM)	0.05 (≈ 0.128 µM)	0.78 (≈ 2 µM)	0.78 (≈ 2 µM)	0.78 (≈ 2 µM)	0.78 (≈ 2 µM)	0.2 (≈ 0.514 µM)	0.78 (≈ 2 µM)	0.78 (≈ 2 µM)	0.39 (≈ 1 µM)	CC(C)N1CCN(c2c(F)cc3c(=O)c(C(=O)O)cn4c3c2OCC4C)CC1 (racemic) [(4), 3(RS)-9-fluoro-2,3-dihydro-3-methyl-10-(4-iso-propyl-1-piperazinyl)-7-oxo-7H-pyrido[1,2,3-de] [1,4]benzoxazine-6-carboxylic acid]	–

More lines, now with the values behind:

SMILES	MIC [1, 16] [µg/mL]	MIC [2, 17] [µg/mL]	MIC [3] [µg/mL]	MIC [4, 18] [µg/mL]	MIC [5, 19] [µg/mL]	MIC [8, 20] [µg/mL]	MIC [9, 21] [µg/mL]	MIC [10, 22] [µg/mL]	MIC [11, 23] [µg/mL]	MIC [12, 24] [µg/mL]	MIC [13, 25] [µg/mL]	MIC [14, 26] [µg/mL]	MIC [15, 27] [µg/mL]	other results
CCN1CCN(c2c(F)cc3c(=O)c(C(=O)O)cn4c3c2OCC4C)CC1 (racemic) [Compound (2), 3(RS)-9-fluoro-2,3-dihydro-3-methyl-10-(4-ethyl-1-piperazinyl)-7-oxo-7H-pyrido[1,2,3-de] [1,4]benzoxazine-6-carboxylic acid]	0.1 (≈ 0.266 µM)	0.025 (≈ 0.0666 µM)	0.1 (≈ 0.266 µM)	0.1 (≈ 0.266 µM)	0.025 (≈ 0.0666 µM)	0.1 (≈ 0.266 µM)	0.2 (≈ 0.533 µM)	0.2 (≈ 0.533 µM)	0.39 (≈ 1.04 µM)	0.05 (≈ 0.133 µM)	0.1 (≈ 0.266 µM)	0.2 (≈ 0.533 µM)	0.1 (≈ 0.266 µM)	Mycoplasma gallisepticum collected in Air sac ([6]; 50 ppm in feed for 5 days): 2.08 Logarithmic number of collected cells per 1 g of tissue; Mycoplasma gallisepticum collected in Infraorbital sinus ([6]; 50 ppm in feed for 5 days): 0/5; Mycoplasma gallisepticum collected in Lung ([6]; 50 ppm in feed for 5 days): 2.43 Logarithmic number of collected cells per 1 g of tissue; Mycoplasma gallisepticum collected in Trachea ([6]; 50 ppm in feed for 5 days): 2.96 Logarithmic number of collected cells per 1 g of tissue; Chickens developing disease in air sac (naked eye observation) ([6]; 50 ppm in feed for 5 days): 0; No. of dead chickens ([6]; 50 ppm in feed for 5 days): 0; Mycoplasma gallisepticum collected in Air sac ([6]; 75 ppm in feed for 5 days): 0 Logarithmic number of collected cells per 1 g of tissue; Mycoplasma gallisepticum collected in Infraorbital sinus ([6]; 75 ppm in feed for 5 days): 0/5; Mycoplasma gallisepticum collected in Lung ([6]; 75 ppm in feed for 5 days): 0 Logarithmic number of collected cells per 1 g of tissue; Mycoplasma gallisepticum collected in Trachea ([6]; 75 ppm in feed for 5 days): 0 Logarithmic number of collected cells per 1 g of tissue; Chickens developing disease in air sac (naked eye observation) ([6]; 75 ppm in feed for 5 days): 0; No. of dead chickens ([6]; 75 ppm in feed for 5 days): 0; Mycoplasma gallisepticum collected in Air sac ([6]; 100 ppm in feed for 5 days): 0 Logarithmic number of collected cells per 1 g of tissue; Mycoplasma gallisepticum collected in Infraorbital sinus ([6]; 100 ppm in feed for 5 days): 0/5; Mycoplasma gallisepticum collected in Lung ([6]; 100 ppm in feed for 5 days): 0 Logarithmic number of collected cells per 1 g of tissue; Mycoplasma gallisepticum collected in Trachea ([6]; 100 ppm in feed for 5 days): 0 Logarithmic number of collected cells per 1 g of tissue; Chickens developing disease in air sac (naked eye observation) ([6]; 100 ppm in feed for 5 days): 0; No. of dead chickens ([6]; 100 ppm in feed for 5 days): 0; fatality ([7]; mice, intravenously injected, dose of 200 mg/kg): No fatality; LD50 ([7]; mouse, in vivo, iv): > 200 mg/kg
CCn1cc(C(=O)O)c(=O)c2cc3c(cc21)OCO3 [Oxolinic acid, reference compound]	–	–	–	–	–	–	–	–	–	–	–	–	–	MIC [1]: > 100 µg/mL; MIC [2]: > 100 µg/mL; MIC [4]: > 100 µg/mL; MIC [5]: > 100 µg/mL; MIC ([8]; Escherichia coli, S6W): 0.39 µg/mL (≈ 1.49 µM); MIC ([9]; TYPHIMURIUM): 0.78 µg/mL (≈ 2.99 µM); MIC ([10]; Bordetella, OKM1): 1.56 µg/mL (≈ 5.97 µM); MIC ([11]; Staphylococcus aureus): 3.13 µg/mL (≈ 12 µM); MIC ([12]; Pasteurella multocida): 0.2 µg/mL (≈ 0.766 µM); MIC ([13]; Salmonella enterica, TYPHIMURIUM): 0.39 µg/mL (≈ 1.49 µM); MIC ([14]; Escherichia coli, 139): 0.78 µg/mL (≈ 2.99 µM); MIC ([15]; Escherichia coli, 881): 0.39 µg/mL (≈ 1.49 µM)
CCN1CCN(c2c(F)cc3c(=O)c(C(=O)O)cn4c3c2OCC4C)CC1 (racemic) [Compound (8), 3(RS)-9-fluoro-2,3-dihydro-3-methyl-10-(4-ethyl-1-piperazinyl)-7-oxo-7H-pyrido[1,2,3-de] [1,4]benzoxazine-6-carboxylic acid hydrochloride hemihydrate]	–	–	–	–	–	–	–	–	–	–	–	–	–	MIC ([8]; Escherichia coli S6W, Chicken, listed as No. 8, hydrochloride hemihydrate): 0.2 µg/mL; MIC ([10]; Bordetella bronchiaseptica OKM-1, Pig, listed as No. 8, hydrochloride hemihydrate): 0.39 µg/mL; MIC ([13]; Salmonella typhimurium 569, Pig, listed as No. 8, hydrochloride hemihydrate): 0.2 µg/mL; MIC ([15]; Escherichia coli 881, Pig, listed as No. 8, hydrochloride hemihydrate): 0.2 µg/mL
